Source: US20080125405A1, “Composition for treating or preventing olfactory disorder” (Samsung Life Public Welfare Foundation Samsung Medical …, priority 2006, published 2008)
Where two headings read alike, the source gives them in different places.

Legend:
[1] = tested on: olfactory epithelial cells; assay: Columnar arrangement grade of olfactory epithelial cells after 3-methylindole damage, H&E staining; assay type: in vivo, Sprague-Dawley rats; settings: grade 1 (not arranged) to 3 (well arranged), drug 10 mg/kg oral daily
Protocol: (§1) To collect the olfactory tissues of the test group, the reference group and the control group, the test animals of the three groups were sacrificed on the fourth day, the seventh day, the fourteenth day and the twenty eighth day after the treatment with 3-methylindole. Six test animals were sacrificed each time.
(§2) H&E staining of the tissue obtained from Example 1-2 was performed by treating the paraffin block cut into a thickness of 4 μm via the above trimming and microtomy steps of Example 1-2 with a hematoxylin solution (Zymed, USA) and an eosin solution (eosin Y, Sigma, USA). More particularly, the H&E staining was performed as follows.
(§3) The paraffin block cut into a thickness of 4 μm as described in Example 1-2, i.e. the tissue specimen, was deparaffinized by repeating a xylene treatment cycle (dipping the tissue into 100% xylene twenty times) three times, was subjected to rehydration and staining with a hematoxylin solution for 5 minutes, and then was washed thoroughly with flowing water for 15 minutes. The washed tissue specimen was subjected to differential staining in 0.25% eosin solution for 40 seconds. After the differential staining, the tissue specimen was treated with an increasing amount of alcohol from a lower concentration to a higher concentration (i.e. 50%, 70%, 95% and 100% alcohol) for 1 hour at each concentration to further carry out dehydration. The dehydrated tissue specimen was passed through xylene three times and was encapsulated by covering it with a cover slide.
(§4) To observe damage to or recovery of the olfactory mucous membrane epithelia, the heights and arrangements of the epithelia in the test groups were compared to each other after carrying out H&E staining. To perform the comparison of the heights of the olfactory epithelia, the height of the olfactory epithelium in each test group was measured by taking a photograph of the olfactory mucous membrane at both upper sides of the nasal septum at a magnitude of 200×, wherein the average height of the olfactory mucous membrane epithelium was determined by using an Image J Program (NIH). Also, to perform the comparison of the heights of the olfactory epithelia, columnar arrangement corresponding to the arrangement of the olfactory epithelial cells in each test group was determined.
Herein, as the grade number increases, a higher degree of regeneration is made in the olfactory mucous membranes.
Additionally, columnar arrangement of the olfactory epithelial cells in each group was determined. The columnar arrangement of each group is shown in FIG. 3 as a grade evaluated according to the above criteria.

[2] = tested on: olfactory epithelium; assay: Height (thickness) of olfactory epithelium after 3-methylindole damage, H&E staining; assay type: in vivo, Sprague-Dawley rats; settings: rats, 3-methylindole 150 mg/kg i.p., drug 10 mg/kg oral daily; for height of olfactory epithelium: time point not printed (first sampling, fourth day), mean±SD
Protocol: as §1, §2, §3, §4
After measuring the heights of the olfactory epithelia, statistical analysis of the results was performed by using the above mentioned Anova test with Bonferroni's correction.

[3] = tested on: olfactory receptor cells; settings: grade 0 to 4, higher = more regeneration, drug 10 mg/kg oral daily
Protocol: As test animals, female white Sprague-Dawley rats (Orient Co., Korea) having a body weight of 100-150 g were used. […] The test animals were raised in raising chambers for one week.
The test animals in the test group and the reference group were subjected to intraperitoneal injection of 150 mg/kg (body weight of each test animal) of 3-methylindole (3-MI) so that their olfactory epithelia were damaged. […] To the test animals in the reference group, 10 mg/kg (body weight of each test animal) of a steroid formulation, i.e. prednisolone, dissolved in 1 cc of saline was orally administered according to the same protocol as the test group. Additionally, to the test animals in the control group, the same amount (1 cc) of saline was administered after the olfactory epithelia were damaged, according to the same protocol as the test group.
To observe the distribution of the olfactory receptor cells, immunoreactivity to protein gene product 9.5 (PGP 9.5) known to exist specifically in the olfactory nerve cells was investigated.
The immunohistological staining was performed by using a Histostain-Plus kit (Zymed, San Francisco, USA). The paraffin block cut into a thickness of 4 μm, i.e. the tissue specimen was positioned on a slide coated with poly-L-lysine and was subjected to rehydration by using a decreasing amount of alcohol gradually from 100% alcohol to distilled water. The rehydrated tissue specimen was introduced into heated 10 mM citrate buffer (pH 5.0, Sigma, USA) and was further heated in a microwave oven twice, for 5 minutes each time. Next, the heated tissue specimen was removed from the microwave oven, cooled in the 10 mM citrate buffer for 20 minutes, washed with distilled water, allowed to react with 0.05M Tris-HCl buffer (Tris buffered saline, TBS) containing 3% H2O2 added thereto for 20 minutes to remove the activity of the endogenous peroxidase, and then was washed with 0.05M Tris-HCl buffered saline three times. After removing the activity of the endogenous peroxidase, the washed tissue specimen was treated with 0.1% Triton X-100 (USB, Ohio, USA) for 15 minutes, and further washed with 0.05M Tris-HCl buffered saline three times. After the treatment with 0.1% Triton X-100, the washed tissue specimen was allowed to react with a blocking reagent (10% normal goat serum) for 30 minutes to inhibit non-specific antigen-antibody reactions. […]

[4] = fourteen days after 3-methylindole
[5] = seven days after 3-methylindole
[6] = twenty eight days after 3-methylindole

| SMILES | average grade of columnar arrangement of olfactory epithelial cells ([1]; four days after 3-methylindole) | average grade of columnar arrangement of olfactory epithelial cells [1, 4] | average grade of columnar arrangement of olfactory epithelial cells [1, 5] | average grade of columnar arrangement of olfactory epithelial cells [1, 6] | thickness of olfactory epithelium [2, 4] | thickness of olfactory epithelium [2, 5] | height of olfactory epithelium [2] | thickness of olfactory epithelium [2, 6] | average PGP 9.5 immunostaining grade ([3]; four days after 3-methylindole) | average PGP 9.5 immunostaining grade [3, 4] | average PGP 9.5 immunostaining grade [3, 5] | average PGP 9.5 immunostaining grade [3, 6] |
| --- | --- | --- | --- | --- | --- | --- | --- | --- | --- | --- | --- | --- |
| CC(C)c1c(C(=O)Nc2ccccc2)c(-c2ccccc2)c(-c2ccc(F)cc2)n1CC[C@@H](O)C[C@@H](O)CC(=O)O [atorvastatin] | 1.0±0.5 | 1.7±0.7 | 1.7±0.3 | 2.8±0.5 | 58.6±16.3 μm | 56.1±26.9 μm | 17.4±15.1 μm | 63.9±20.2 μm |  |  |  |  |
| C[C@]12C=CC(=O)C=C1CC[C@@H]1[C@@H]2[C@@H](O)C[C@@]2(C)[C@H]1CC[C@]2(O)C(=O)CO [prednisolone] | 0.9±0.3 | 1.8±0.5 |  | 2.5±0.4 | 60.5±11.6 μm | 21.1±13.4 μm | 9.5±4.7 μm | 72.2±21.8 μm | 0.5±0.67 | 2.42±1.38 | 0.92±0.79 | 1.75±1.22 |
